In patent US12049450B2, “Pyridyloxy-carboxylate derivative and preparation method therefor, herbicidal composition, and use” (Qingdao Kingagroot Chemical Compound Co., Ltd., priority 2018, dated 2024):

Experiments:
Format in all cases: in vivo
Echinochloa crusgalli = test: Post-emergence test experiment (greenhouse pot, spray at 2-3 leaf stage); conditions: for Activity level (growth inhibition rate) Echinochloa crusgalli: 1000 g/ha, post-emergence spray at 2-3 leaf stage, assessed after 3 weeks, fresh weight inhibition rate; for Echinochloa crusgalli, activity level (growth inhibition rate): post-emergence, 600 g/ha, after 3 weeks, from Hunan, resistant to ALS inhibitor herbicides
Summary of the method: (§1)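 Weed seeds sown in soil-filled pots in greenhouse, sprayed at 2-3 leaf stage (2 weeks after sowing) with compound in acetone/tween-80 plus methyl oleate emulsible concentrate (1.5 L/ha) diluted in water. Fresh-weight growth inhibition scored after 3 weeks on 0-5 scale (5: >85%, 0: <5%).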

Monochoria vaginalis [1] = test: as above; conditions: 1000 g/ha; post-emergence spray at 2-3 leaf stage; assessed after 3 weeks; fresh weight inhibition rate
Summary of the method: as §1

Digitaria sanguinalis = test: as above; conditions: 1000 g/ha; post-emergence spray at 2-3 leaf stage; assessed after 3 weeks; fresh weight inhibition rate
Summary of the method: as §1

Indica rice = test: as above; conditions: post-emergence, 600 g/ha, after 3 weeks
Summary of the method: (§2)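 Activity graded levels 0-5 by fresh-weight inhibition (level 5 above 85%, level 0 below 5%), assessed 3 weeks after treatment. Plants grown in greenhouse pots were sprayed post-emergence at 2-3 leaves using acetone/tween-80 solutions with methyl oleate synergist (1.5 L/ha).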

Galium spurium = test: as above; conditions: 1000 g/ha; post-emergence spray at 2-3 leaf stage; assessed after 3 weeks; fresh weight inhibition rate
Summary of the method: as §1

Abutilon theophrasti = test: as above; conditions: 1000 g/ha; post-emergence spray at 2-3 leaf stage; assessed after 3 weeks; fresh weight inhibition rate
Summary of the method: as §1

Japonica rice = test: as above; conditions: post-emergence, 600 g/ha, after 3 weeks
Summary of the method: as §2

Cyperus iria = test: as above; conditions: post-emergence, 600 g/ha, after 3 weeks; from Hunan, resistant to ALS inhibitor herbicides
Summary of the method: as §1

Monochoria vaginalis [2] = test: Weed control effect evaluation in rice field soil pot; conditions: paddy pot, 1000 g/ha, 14 days after treatment; resistant to pyrazosulfuron-ethyl and penoxsulam
Excerpt: (§3) The activity level standard of harmful plants destruction (i. e. growth inhibition rate) is as follows: • Level 5: the growth inhibition rate is greater than 85%; • Level 4: the growth inhibition rate is equal to or greater than 60% and less than 85%; • Level 3: the growth inhibition rate is equal to or greater than 40% and less than 60%; • Level 2: the growth inhibition rate is equal to or greater than 20% and less than 40%; • Level 1: the growth inhibition rate is equal to or greater than 5% and less than 20%; • Level 0: the growth inhibition rate is less than 5%;
(§4) Transplanted rice safety evaluation and weed control effect evaluation in rice field:
Rice field soil was loaded into a 1/1,000,000 ha pot. The seeds of Monochoria vaginalis were sowed and gently covered with soil, then left to stand still in greenhouse in the state of 0.5-1 cm of water storage. It was kept at 3-4 cm of water storage thereafter. The weeds were treated by dripping the WP or SC water diluents prepared according to the common preparation method of the compounds of the present invention with pipette homogeneously to achieve specified effective amount when Monochoria vaginalis reached 0.5 leaf stage.
(§5) The fertility condition of Monochoria vaginalis 14 days and rice 21 days after the treatment of the compound of the invention with the naked eye.

rice (japonica rice) = test: Transplanted rice safety evaluation in rice field soil pot; conditions: 1000 g/ha, 21 days after treatment
Excerpt: as §3, §4
In addition, the rice field soil that loaded into the 1/1,000,000 ha pot was leveled to keep water storage at 3-4 cm depth. The 3-leaf stage rice (japonica rice) was transplanted at 3 cm of transplanting depth the next day. The compound of the present invention was treated by the same way after 5 days of transplantation.
as §5

Row | SMILES | Activity level (growth inhibition rate) Echinochloa crusgalli (Echinochloa crusgalli) | Echinochloa crusgalli, activity level (growth inhibition rate) (Echinochloa crusgalli) | Activity level (growth inhibition rate) Monochoria Vaginalis (Monochoria vaginalis [1]) | Activity level (growth inhibition rate) Digitaria sanguinalis (Digitaria sanguinalis) | Indica rice, activity level (growth inhibition rate) (Indica rice) | Activity level (growth inhibition rate) Galium spurium (Galium spurium) | Activity level (growth inhibition rate) Abutilon theophrasti (Abutilon theophrasti) | Japonica rice, activity level (growth inhibition rate) (Japonica rice) | Cyperus iria, activity level (growth inhibition rate) (Cyperus iria) | Monochoria Vaginalis, activity level (Monochoria vaginalis [2]) | Rice, safety level (rice (japonica rice))
1 | CC(Oc1nc(F)c(Cl)c(N)c1Cl)C(=O)OCc1ccccc1F (stereo not drawn) [Compound 75] | 5 (Level 5: the growth inhibition rate is greater than 85%) | 5 (Level 5: the growth inhibition rate is greater than 85%) | 5 (Level 5: the growth inhibition rate is greater than 85%) | 5 (Level 5: the growth inhibition rate is greater than 85%) | 0 (Level 0: the growth inhibition rate is less than 5%) | 5 (Level 5: the growth inhibition rate is greater than 85%) | 5 (Level 5: the growth inhibition rate is greater than 85%) | 0 (Level 0: the growth inhibition rate is less than 5%) | 5 (Level 5: the growth inhibition rate is greater than 85%) | 5 (Level 5: the growth inhibition rate is greater than 85%) | 0 (Level 0: the growth inhibition rate is less than 5%)
2 | CC(Oc1nc(F)c(Cl)c(N)c1Cl)C(=O)SCc1cccc(Cl)c1 (stereo not drawn) [Compound 76] | 5 (Level 5: the growth inhibition rate is greater than 85%) | 5 (Level 5: the growth inhibition rate is greater than 85%) | 5 (Level 5: the growth inhibition rate is greater than 85%) | 5 (Level 5: the growth inhibition rate is greater than 85%) | 0 (Level 0: the growth inhibition rate is less than 5%) | 5 (Level 5: the growth inhibition rate is greater than 85%) | 5 (Level 5: the growth inhibition rate is greater than 85%) | 0 (Level 0: the growth inhibition rate is less than 5%) | 5 (Level 5: the growth inhibition rate is greater than 85%) | 5 (Level 5: the growth inhibition rate is greater than 85%) | 0 (Level 0: the growth inhibition rate is less than 5%)
3 | COc1c(Cl)ccc(COC(=O)C(C)Oc2nc(F)c(Cl)c(N)c2Cl)c1F (stereo not drawn) [Compound 85] | 5 (Level 5: the growth inhibition rate is greater than 85%) | 5 (Level 5: the growth inhibition rate is greater than 85%) | 5 (Level 5: the growth inhibition rate is greater than 85%) | 5 (Level 5: the growth inhibition rate is greater than 85%) | 0 (Level 0: the growth inhibition rate is less than 5%) | 5 (Level 5: the growth inhibition rate is greater than 85%) | 5 (Level 5: the growth inhibition rate is greater than 85%) | 0 (Level 0: the growth inhibition rate is less than 5%) | 5 (Level 5: the growth inhibition rate is greater than 85%) | 5 (Level 5: the growth inhibition rate is greater than 85%) | 0 (Level 0: the growth inhibition rate is less than 5%)
4 | CC(Oc1nc(F)c(Cl)c(N)c1Cl)C(=O)OCc1ccccn1 (stereo not drawn) [Compound 120] | 5 (Level 5: the growth inhibition rate is greater than 85%) | 5 (Level 5: the growth inhibition rate is greater than 85%) | 5 (Level 5: the growth inhibition rate is greater than 85%) | 5 (Level 5: the growth inhibition rate is greater than 85%) | 0 (Level 0: the growth inhibition rate is less than 5%) | 5 (Level 5: the growth inhibition rate is greater than 85%) | 5 (Level 5: the growth inhibition rate is greater than 85%) | 0 (Level 0: the growth inhibition rate is less than 5%) | 5 (Level 5: the growth inhibition rate is greater than 85%) | 5 (Level 5: the growth inhibition rate is greater than 85%) | 0 (Level 0: the growth inhibition rate is less than 5%)
5 | CC(Oc1nc(F)c(Cl)c(N)c1Cl)C(=O)SCc1cc(C2CC2)nn1C (stereo not drawn) [Compound 128] | 5 (Level 5: the growth inhibition rate is greater than 85%) | 5 (Level 5: the growth inhibition rate is greater than 85%) | 5 (Level 5: the growth inhibition rate is greater than 85%) | 5 (Level 5: the growth inhibition rate is greater than 85%) | 0 (Level 0: the growth inhibition rate is less than 5%) | 5 (Level 5: the growth inhibition rate is greater than 85%) | 5 (Level 5: the growth inhibition rate is greater than 85%) | 0 (Level 0: the growth inhibition rate is less than 5%) | 5 (Level 5: the growth inhibition rate is greater than 85%) | 5 (Level 5: the growth inhibition rate is greater than 85%) | 0 (Level 0: the growth inhibition rate is less than 5%)
6 | CC(Oc1nc(F)c(Cl)c(N)c1Cl)C(=O)OCCc1ccoc1 (stereo not drawn) [Compound 140] | 5 (Level 5: the growth inhibition rate is greater than 85%) | 5 (Level 5: the growth inhibition rate is greater than 85%) | 5 (Level 5: the growth inhibition rate is greater than 85%) | 5 (Level 5: the growth inhibition rate is greater than 85%) | 0 (Level 0: the growth inhibition rate is less than 5%) | 5 (Level 5: the growth inhibition rate is greater than 85%) | 5 (Level 5: the growth inhibition rate is greater than 85%) | 0 (Level 0: the growth inhibition rate is less than 5%) | 5 (Level 5: the growth inhibition rate is greater than 85%) | 5 (Level 5: the growth inhibition rate is greater than 85%) | 0 (Level 0: the growth inhibition rate is less than 5%)
